Measurements as given in patent US20260285850A1, “SUBSTITUTED OXAZOLIDINONES AND IMIDAZOLINONES AS HERBICIDES” (FMC CORPORATION, priority 2023, published 2026).

What was measured:
Format in all cases: in vivo
corn (Zea mays) [1] = assay: Test A postemergence application, visual injury rating 0-100; conditions: 10 days
In short: (§1)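 Loam-sand pots got test material in surfactant-containing solvent, either as a directed soil spray before emergence or on plants at the one- to two-leaf stage. Visual injury (0-100) was read after ten greenhouse days.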

[2] = tested on: barnyardgrass (Echinochloa crus-galli); assay: as above; conditions: 10 days
In short: as §1

[3] = tested on: blackgrass (Alopecurus myosuroides); assay: as above; conditions: 10 days
In short: as §1

[4] = tested on: oat, wild (wild oat, Avena fatua); assay: as above; conditions: 10 days
In short: as §1

[5] = tested on: ragweed (common ragweed, Ambrosia artemisiifolia); assay: as above; conditions: 10 days
In short: as §1

[6] = tested on: wheat (Triticum aestivum); assay: as above; conditions: 10 days
In short: as §1

[7] = tested on: horseweed (Erigeron canadensis); assay: as above; conditions: 10 days
In short: as §1

soybean (Glycine max) [8] = assay: as above; conditions: 10 days
In short: as §1

[9] = tested on: ryegrass, Italian (italian ryegrass, Lolium multiflorum); assay: as above; conditions: 10 days
In short: as §1

kochia (Bassia scoparia) [10] = assay: as above; conditions: 10 days
In short: as §1

[11] = tested on: palmer (palmer amaranth, palmer pigweed, Amaranthus palmeri); assay: as above; conditions: 10 days
In short: as §1

[12] = tested on: galium (catchweed bedstraw, Galium aparine); assay: as above; conditions: 10 days
In short: as §1

corn (Zea mays) [13] = assay: Test A preemergence soil spray, visual injury rating 0-100; conditions: 10 days, 0 = no effect, 100 = complete control
In short: as §1

[14] = tested on: barnyardgrass (Echinochloa crus-galli); assay: as above; conditions: 10 days, 0 = no effect, 100 = complete control
In short: as §1

[15] = tested on: blackgrass (Alopecurus myosuroides); assay: as above; conditions: 10 days, 0 = no effect, 100 = complete control
In short: as §1

[16] = tested on: oat, wild (wild oat, Avena fatua); assay: as above; conditions: 10 days, 0 = no effect, 100 = complete control
In short: as §1

[17] = tested on: ragweed (common ragweed, Ambrosia artemisiifolia); assay: as above; conditions: 10 days, 0 = no effect, 100 = complete control
In short: as §1

[18] = tested on: wheat (Triticum aestivum); assay: as above; conditions: 10 days, 0 = no effect, 100 = complete control
In short: as §1

soybean (Glycine max) [19] = assay: as above; conditions: 10 days, 0 = no effect, 100 = complete control
In short: as §1

[20] = tested on: ryegrass, Italian (italian ryegrass, Lolium multiflorum); assay: as above; conditions: 10 days, 0 = no effect, 100 = complete control
In short: as §1

kochia (Bassia scoparia) [21] = assay: as above; conditions: 10 days, 0 = no effect, 100 = complete control
In short: as §1

[22] = tested on: palmer (palmer amaranth, palmer pigweed, Amaranthus palmeri); assay: as above; conditions: 10 days, 0 = no effect, 100 = complete control
In short: as §1

rice (Oryza sativa) = assay: Test B flooded paddy test, visual plant response rating 0-100; conditions: 250 g ai/ha, Flood, applied to paddy water, evaluated after 13 days
In short: (§2)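 Paddy-water application: test compounds went directly into water flooded 3 cm above the soil surface, with plants at 2 leaves. After a 13-day greenhouse period, responses were judged by eye relative to controls; a dash marks an untested entry.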

[23] = tested on: barnyardgrass (Echinochloa crusgalli); assay: as above; conditions: 250 g ai/ha, Flood, applied to paddy water, evaluated after 13 days
In short: as §2

[24] = tested on: ducksalad (Heteranthera limosa); assay: as above; conditions: 250 g ai/ha, Flood, applied to paddy water, evaluated after 13 days
In short: as §2

[25] = tested on: sedge, umbrella (small-flower umbrella sedge, Cyperus difformis); assay: as above; conditions: 250 g ai/ha, Flood, applied to paddy water, evaluated after 13 days
In short: as §2

[26] = 31 g ai/ha, postemergence, 0 = no effect, 100 = complete control
[27] = Postemergence, 125 g ai/ha, 0 is no effect, 100 is complete control

## CC1(C(=O)NC2C=CC(C(=O)OC3CCCC3)C2)CN(c2cc(Cl)cc(Cl)c2)C(=O)O1 (stereo not drawn) [Compound 59]
Corn (Zea mays) [1]; [26]
  Corn plant response rating (0-100): 90
Corn (Zea mays) [1]; [27]
  Corn plant response rating (0 to 100 scale): 100
[2]; [26]
  Barnyardgrass plant response rating (0-100): 90
[2]; [27]
  Barnyardgrass plant response rating (0 to 100 scale): 90
[3]; [26]
  Blackgrass plant response rating (0-100): 100
[3]; [27]
  Blackgrass plant response rating (0 to 100 scale): 100
[4]; [26]
  Oat, Wild plant response rating (0-100): 60
[4]; [27]
  Oat, Wild plant response rating (0 to 100 scale): 90
[5]; [26]
  Ragweed plant response rating (0-100): 30
[5]; [27]
  Ragweed plant response rating (0 to 100 scale): 80
[6]; [26]
  Wheat plant response rating (0-100): 90
[6]; [27]
  Wheat plant response rating (0 to 100 scale): 90
[7]; [26]
  Horseweed plant response rating (0-100): 20
[7]; [27]
  Horseweed plant response rating (0 to 100 scale): 70
Soybean (Glycine max) [8]; [26]
  Soybean plant response rating (0-100): 90
Soybean (Glycine max) [8]; [27]
  Soybean plant response rating (0 to 100 scale): 100
[9]; [26]
  Ryegrass, Italian plant response rating (0-100): 90
[9]; [27]
  Ryegrass, Italian plant response rating (0 to 100 scale): 90
Kochia (Bassia scoparia) [10]; [26]
  Kochia plant response rating (0-100): 80
Kochia (Bassia scoparia) [10]; [27]
  Kochia plant response rating (0 to 100 scale): 90
[11]; [26]
  Amaranth, Palmer plant response rating (0-100): 90
[11]; [27]
  Amaranth, Palmer / Pigweed, Palmer plant response rating (0 to 100 scale): 100
[12]; [26]
  Galium plant response rating (0-100): 90
[12]; [27]
  Galium plant response rating (0 to 100 scale): 90
Corn (Zea mays) [13]; 31 g ai/ha
  Corn plant response rating (0-100): 0
Corn (Zea mays) [13]; 125 g ai/ha
  Corn plant response rating (0 to 100 scale): 50
[14]; 31 g ai/ha
  Barnyardgrass plant response rating (0-100): 60
[14]; 125 g ai/ha
  Barnyardgrass plant response rating (0 to 100 scale): 100
[15]; 31 g ai/ha
  Blackgrass plant response rating (0-100): 0
[15]; 125 g ai/ha
  Blackgrass plant response rating (0 to 100 scale): 60
[16]; 31 g ai/ha
  Oat, Wild plant response rating (0-100): 10
[16]; 125 g ai/ha
  Oat, Wild plant response rating (0 to 100 scale): 80
[17]; 31 g ai/ha
  Ragweed plant response rating (0-100): 30
[17]; 125 g ai/ha
  Ragweed plant response rating (0 to 100 scale): 60
[18]; 31 g ai/ha
  Wheat plant response rating (0-100): 30
[18]; 125 g ai/ha
  Wheat plant response rating (0 to 100 scale): 70
Soybean (Glycine max) [19]; 31 g ai/ha
  Soybean plant response rating (0-100): 30
Soybean (Glycine max) [19]; 125 g ai/ha
  Soybean plant response rating (0 to 100 scale): 60
[20]; 31 g ai/ha
  Ryegrass, Italian plant response rating (0-100): 60
[20]; 125 g ai/ha
  Ryegrass, Italian plant response rating (0 to 100 scale): 80
Kochia (Bassia scoparia) [21]; 31 g ai/ha
  Kochia plant response rating (0-100): 40
Kochia (Bassia scoparia) [21]; 125 g ai/ha
  Kochia plant response rating (0 to 100 scale): 80
[22]; 31 g ai/ha
  Amaranth, Palmer plant response rating (0-100): 100
[22]; 125 g ai/ha
  Amaranth, Palmer plant response rating (0 to 100 scale): 100
Rice (Oryza sativa)
  Plant response rating, Rice (0 to 100 scale, 0 is no effect and 100 is complete control): 50
[23]
  Plant response rating, Barnyardgrass (0 to 100 scale, 0 is no effect and 100 is complete control): 90
[24]
  Plant response rating, Ducksalad (0 to 100 scale, 0 is no effect and 100 is complete control): 85
[25]
  Plant response rating, Sedge, Umbrella (0 to 100 scale, 0 is no effect and 100 is complete control): 98
